Test system: HCT116 DICER^ex5 cells
Experiment: Gene expression profiling (Agilent 44K microarray) after transfection of miR-192/miR-215 duplex mimetics
Format: cell-based, human
Settings: 10 nM, vs mock-transfected
Protocol: Synthetic duplex mimetics of miR-192 and miR-215 (sequences shown in TABLE 1) or a control target Luciferase siRNA (Luc), shown in TABLE 1, were transfected (10 nM final concentration) into HCT116 DICER^ex5, a human colorectal cancer cell line with hypomorphic DICER function (Cummins, J. M., et al., PNAS 103:3687-3692 (2006)). The transfections were carried out using Lipofectamine RNAiMax (Invitrogen) per the manufacturer's instructions. At 10 and 24 hours post-transfection, total RNA was extracted and gene expression profiling was carried out with the Agilent 44K microarray in comparison to RNA isolated from mock-transfected HCT116DICER^ex5 cells. Microarray analysis was carried out as described in Linsley, P. S., et al., Mol Cell Biol 27:2240-2252 (2007). Gene expression data analysis was done either with the Rosetta Resolver gene expression analysis software (Version 7.1 Rosetta Biosoftware).

miR-215: Synthetic duplex mimetic of miR-215, guide AUGACCUAUGAAUUGACAGAC (SEQ ID NO:4), passenger SEQ ID NO:10 (sense CUGUCAAUUCAUAGGUCUUAU; listed as RNA, chemistry not given here; listed as Homo sapiens)
BCL2 transcript fold change (10 hr): −1.09 fold change
BRCA1 transcript fold change (10 hr): −1.04 fold change
CDC7 transcript fold change (10 hr): −1.54 fold change
CDC14A transcript fold change (10 hr): −1.05 fold change
CDC73 transcript fold change (10 hr): −1.04 fold change
CRK transcript fold change (10 hr): −1.43 fold change
CTCF transcript fold change (10 hr): −1.53 fold change
CUL5 transcript fold change (10 hr): −1.25 fold change
DBF4B transcript fold change (10 hr): −1.07 fold change
DEK transcript fold change (10 hr): −1.19 fold change
DLG5 transcript fold change (10 hr): −1.89 fold change
DTL transcript fold change (10 hr): −1.19 fold change
EMP1 transcript fold change (10 hr): 1.11 fold change
ERCC3 transcript fold change (10 hr): −1.25 fold change
EXTL2 transcript fold change (10 hr): −1.32 fold change
FGF2 transcript fold change (10 hr): −1.67 fold change
HOXA10 transcript fold change (10 hr): −1.74 fold change
HRH1 transcript fold change (10 hr): −1.52 fold change
KIF14 transcript fold change (10 hr): 1.01 fold change
KIF23 transcript fold change (10 hr): 1.01 fold change
LMNB2 transcript fold change (10 hr): −1.55 fold change
MACF1 transcript fold change (10 hr): −1.17 fold change
MAD2L transcript fold change (10 hr): −1.31 fold change
MCM3 transcript fold change (10 hr): −1.56 fold change
MCM6 transcript fold change (10 hr): −1.04 fold change
MCM10 transcript fold change (10 hr): −1.97 fold change
MIS12 transcript fold change (10 hr): −1.28 fold change
MKI67 transcript fold change (10 hr): −1.04 fold change
MPHOSPH1 transcript fold change (10 hr): −1.46 fold change
MTSS1 transcript fold change (10 hr): −1.07 fold change
NBN transcript fold change (10 hr): −1.39 fold change
NCAPH transcript fold change (10 hr): −1.02 fold change
NEK1 transcript fold change (10 hr): −1.16 fold change
NFIB transcript fold change (10 hr): −1.38 fold change
NFYA transcript fold change (10 hr): −1.25 fold change
NIN transcript fold change (10 hr): −1.12 fold change
PAFAH1B1 transcript fold change (10 hr): −1.31 fold change
PAPD5 transcript fold change (10 hr): −1.31 fold change
PFTK1 transcript fold change (10 hr): 1.05 fold change
PIM1 transcript fold change (10 hr): −1.13 fold change
PLAU transcript fold change (10 hr): −1.77 fold change
PLS3 transcript fold change (10 hr): −1.56 fold change
POLQ transcript fold change (10 hr): −1.1 fold change
POLS transcript fold change (10 hr): −1.17 fold change
PPP1CA transcript fold change (10 hr): −1.76 fold change
PRPF38A transcript fold change (10 hr): −1.09 fold change
RACGAP1 transcript fold change (10 hr): −1.31 fold change
RAD1 transcript fold change (10 hr): −1.12 fold change
RAD21 transcript fold change (10 hr): −1.32 fold change
RAD51 transcript fold change (10 hr): 1.05 fold change
RAP1GAP transcript fold change (10 hr): −1.21 fold change
RB1 transcript fold change (10 hr): −1.25 fold change
SEPT10 transcript fold change (10 hr): −1.6 fold change
SERTAD2 transcript fold change (10 hr): −1.09 fold change
SH3BP4 transcript fold change (10 hr): −1.38 fold change
SMARCB1 transcript fold change (10 hr): −1.42 fold change
TDG transcript fold change (10 hr): −1.54 fold change
TDP1 transcript fold change (10 hr): −1.5 fold change
TOP1 transcript fold change (10 hr): −1.64 fold change
TUBGCP3 transcript fold change (10 hr): −1.41 fold change
USP1 transcript fold change (10 hr): −1.16 fold change
UVRAG transcript fold change (10 hr): −1.17 fold change
BCL2 transcript fold change (24 hr): −1.59 fold change
BRCA1 transcript fold change (24 hr): −1.43 fold change
CDC7 transcript fold change (24 hr): −2.04 fold change
CDC14A transcript fold change (24 hr): −1.2 fold change
CDC73 transcript fold change (24 hr): −1.1 fold change
CRK transcript fold change (24 hr): −1.52 fold change
CTCF transcript fold change (24 hr): −1.66 fold change
CUL5 transcript fold change (24 hr): −1.37 fold change
DBF4B transcript fold change (24 hr): −1.33 fold change
DEK transcript fold change (24 hr): −1.42 fold change
DLG5 transcript fold change (24 hr): −2.03 fold change
DTL transcript fold change (24 hr): −1.46 fold change
EMP1 transcript fold change (24 hr): 1.04 fold change
ERCC3 transcript fold change (24 hr): −1.36 fold change
EXTL2 transcript fold change (24 hr): −1.59 fold change
FGF2 transcript fold change (24 hr): −2.12 fold change
HOXA10 transcript fold change (24 hr): −2.57 fold change
HRH1 transcript fold change (24 hr): −1.63 fold change
KIF14 transcript fold change (24 hr): −1.53 fold change
KIF23 transcript fold change (24 hr): −1.36 fold change
LMNB2 transcript fold change (24 hr): −1.92 fold change
MACF1 transcript fold change (24 hr): −1.55 fold change
MAD2L transcript fold change (24 hr): −1.84 fold change
MCM3 transcript fold change (24 hr): −1.96 fold change
MCM6 transcript fold change (24 hr): −1.4 fold change
MCM10 transcript fold change (24 hr): −2.67 fold change
MIS12 transcript fold change (24 hr): −1.77 fold change
MKI67 transcript fold change (24 hr): −1.52 fold change
MPHOSPH1 transcript fold change (24 hr): −1.94 fold change
MTSS1 transcript fold change (24 hr): −1.29 fold change
NBN transcript fold change (24 hr): −1.41 fold change
NCAPH transcript fold change (24 hr): −1.32 fold change
NEK1 transcript fold change (24 hr): −1.35 fold change
NFIB transcript fold change (24 hr): −1.91 fold change
NFYA transcript fold change (24 hr): −1.18 fold change
NIN transcript fold change (24 hr): −1.42 fold change
PAFAH1B1 transcript fold change (24 hr): −1.6 fold change
PAPD5 transcript fold change (24 hr): −1.22 fold change
PFTK1 transcript fold change (24 hr): −1.28 fold change
PIM1 transcript fold change (24 hr): −1.65 fold change
PLAU transcript fold change (24 hr): −1.91 fold change
PLS3 transcript fold change (24 hr): −1.84 fold change
POLQ transcript fold change (24 hr): −1.23 fold change
POLS transcript fold change (24 hr): −1.38 fold change
PPP1CA transcript fold change (24 hr): −2.42 fold change
PRPF38A transcript fold change (24 hr): −1.17 fold change
RACGAP1 transcript fold change (24 hr): −1.84 fold change
RAD1 transcript fold change (24 hr): −1.38 fold change
RAD21 transcript fold change (24 hr): −1.52 fold change
RAD51 transcript fold change (24 hr): −1.35 fold change
RAP1GAP transcript fold change (24 hr): −1.35 fold change
RB1 transcript fold change (24 hr): −1.39 fold change
SEPT10 transcript fold change (24 hr): −1.95 fold change
SERTAD2 transcript fold change (24 hr): −1.1 fold change
SH3BP4 transcript fold change (24 hr): −1.67 fold change
SMARCB1 transcript fold change (24 hr): −1.42 fold change
TDG transcript fold change (24 hr): −1.55 fold change
TDP1 transcript fold change (24 hr): −1.8 fold change
TOP1 transcript fold change (24 hr): −1.76 fold change
TUBGCP3 transcript fold change (24 hr): −1.73 fold change
USP1 transcript fold change (24 hr): −1.38 fold change
UVRAG transcript fold change (24 hr): −1.43 fold change
